Laboratory results reported in paper PMC12311725, “Identification of Ginsentide-like Peptides from Cacao Beans with Oxidative Stress Protection” (ACS Omega, 2025).
Where a SMILES comes first, the peptide text is derived from it. Bridges are numbered along the chain shown (N, C = ends).

Key:
[1] = Iron-binding assay (High-Select Fe-NTA spin column, RP-HPLC of flowthroughs); conditions: 1 h at room temperature, six water washes, elution
Method: The High-Select Fe-NTA Phosphopeptide Enrichment Kit (Thermo Fisher Scientific, USA) was used to investigate the iron-binding abilities of cocotide tC1. Briefly, cocotide tC1 was suspended in the binding buffer provided. The spin column was first equilibrated by adding 200 μL of the binding buffer and then centrifuged at 1000 × g for 30 s (Thermo Fisher Scientific, USA). The suspended peptide sample was added to the spin column and incubated for 1 h at room temperature. The sample was then centrifuged again at 1000 × g for 30 s, and the flowthrough was collected. The spin column was then washed six times with 100 μL of deionized water. Each time, the sample was centrifuged at 1000 × g for 30 s before collecting the flowthrough. Finally, 100 μL of the elution buffer provided was added, and the sample was centrifuged at 1000 × g for another 30 s before collecting the final eluted flowthrough. All eight flowthroughs were analyzed by using RP-HPLC.

[2] = Peptide stability assay with trypsin (RP-HPLC); type: in vitro ADME; conditions: isolated enzyme trypsin, trypsin in 0.1 M ammonium bicarbonate buffer pH 8, 37 °C, peptide 0.1 M [sic], RP-HPLC peak area as % of initial, read-out: structural integrity retained (percentage of peptide remaining) after incubation with trypsin
Method: (§1) Stability studies were conducted using purified cocotide tC1 (0.1 M) and S-alkylated tC1 (iodoacetamido) under specific buffer conditions. Pepsin stability was assessed by incubating the samples in a mixture of pepsin at a ratio of 50:1 (w/v) in 0.2 M HCl at 37 °C. For trypsin stability, the samples were treated with trypsin in 0.1 M ammonium bicarbonate buffer (pH 8) at 37 °C. Analysis of stability assays involved collecting samples at various time points, which were then analyzed by reversed-phase high-performance liquid chromatography (RP-HPLC) using a linear gradient of mobile phase A (0.05% trifluoroacetic acid in water) and mobile phase B (0.05% trifluoroacetic acid in acetonitrile) on an Aeris Peptide XB-C18 column (Phenomenex). The stability results were expressed as a percentage of the initial concentration and determined by the peak area of the HPLC profile.
(§2) 7 Proteolytic stability assays of cocotide tC1. Cocotide tC1 was incubated with either pepsin or trypsin at 37 °C for up to 6 h. S-alkylated tC1 was used as the control. At different time points, samples of cocotide tC1 and the control were quantified using reversed-phase high pressure liquid chromatography (RP-HPLC). The relative peak areas of the RP-HPLC profiles were used to quantify the percentage of peptides remaining after incubation with pepsin or trypsin.

[3] = Peptide stability assay with pepsin (RP-HPLC); type: in vitro ADME; conditions: isolated enzyme pepsin, pepsin 50:1 (w/v) in 0.2 M HCl, 37 °C, peptide 0.1 M [sic], RP-HPLC peak area as % of initial, read-out: structural integrity retained (percentage of peptide remaining) after incubation with pepsin
Method: as §1, §2

[4] = Post-translational modification analysis of methionine oxidation (tims-TOF MS/MS); type: physicochemical; conditions: native peptide, during extraction and purification
Method: The primary sequences of cocotides from Theobroma cacao aqueous extracts were determined by LC-MS/MS sequencing as described previously. The C18-SPE fractionated Theobroma cacao aqueous extracts were redissolved in 20 mM DTT at 37 °C for 1 h followed by S-alkylation with 200 mM iodoacetamide at 37 °C for 1 h. The mixture was desalted with a C18 Zip-tip and subjected to analysis on a trapped ion mobility spectrometer-time-of-flight tandem mass spectrometer (tims-TOF MS/MS). Data analysis was performed using PEAKS Studio (version 11, Bioinformatics Solutions, Waterloo, ON, Canada) with a precursor ion tolerance of 10 ppm and a fragment ion tolerance of 0.05 Da. Carbamidomethylation at Cys was set as a fixed modification. Deamidation of […], oxidation of Met, and acetylation at Lys and N-term were set as variable modification. Peptide sequencing was performed using PEAKS DB protein identification, which integrates database search of an in-house ginsentide-like peptide library derived from Theobroma cacao transcriptome with de novo sequencing.

[5] = Ferric Reducing Antioxidant Power (FRAP) assay
Method: OxiSelect Ferric Reducing Antioxidant Power (FRAP) Assay Kit (Cell Biolabs, USA) was used to measure the antioxidant potential of cocotide tC1. The assay was performed according to the manufacturer’s instructions .

HaCaT cell lysate = biological target: T1, HaCaT cell lysate (Homo sapiens, UniProt P22830); type: binding; conditions: affinity enrichment mass spectrometry
T1 construct: incubated with HaCaT keratinocyte lysates; endogenous in cells; host or cells: HaCaT human keratinocytes
T1 sequence (P22830 55-423): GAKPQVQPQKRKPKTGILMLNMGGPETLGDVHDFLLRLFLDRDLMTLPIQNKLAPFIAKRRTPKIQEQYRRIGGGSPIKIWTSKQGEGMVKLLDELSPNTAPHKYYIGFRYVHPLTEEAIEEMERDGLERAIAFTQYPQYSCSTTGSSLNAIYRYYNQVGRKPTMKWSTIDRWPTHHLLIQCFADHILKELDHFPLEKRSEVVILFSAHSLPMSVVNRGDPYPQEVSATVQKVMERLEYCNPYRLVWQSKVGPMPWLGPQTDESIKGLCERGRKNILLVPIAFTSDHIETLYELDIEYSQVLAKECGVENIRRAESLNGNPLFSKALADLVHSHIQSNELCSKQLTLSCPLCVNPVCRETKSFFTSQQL

Compound: CC[C@H](C)[C@@H]1NC(=O)CNC(=O)[C@H](CCSC)NC(=O)[C@@H]2CCCN2C(=O)[C@H](Cc2ccc(O)cc2)NC(=O)[C@H](CC(C)C)NC(=O)[C@@H]2CSSC[C@@H]3NC(=O)[C@H](Cc4ccccc4)NC(=O)CNC(=O)CNC(=O)[C@H](C)NC(=O)[C@H](CO)NC(=O)[C@H](CC(C)C)NC(=O)[C@@H](N)CSSC[C@@H]4NC(=O)[C@H](CSSC[C@H](NC1=O)C(=O)N[C@@H](Cc1ccc(O)cc1)C(=O)NCC(=O)N[C@@H](CO)C(=O)NCC(=O)N[C@H](C(=O)O)CSSC[C@H](NC(=O)[C@H](CC(N)=O)NC(=O)CNC4=O)C(=O)NCC(=O)N2)NC(=O)[C@H](CC(=O)O)NC(=O)[C@H](CCSC)NC(=O)[C@@H]1CCCN1C(=O)[C@H](CC(N)=O)NC(=O)[C@H](Cc1ccccc1)NC(=O)[C@H](CCSC)NC3=O [cocotide tC1] (H-CLSAGGFCMFNPMDCCGNCGCLYPMGICYGSGC-OH; disulfide 1-16, 8-21, 15-28, 19-33; N-terminus and C-terminus assumed)
- interaction with Fe-NTA agarose resin [1]: interacts with the Fe-NTA agarose resin
- remaining at 6 h [2]: > 80%
- remaining at 6 h [3]: > 80%
- Met19 and Met25 oxidized to Met(O) [4]: < 5%
- methionine at position 9 converted to Met(O) [4]: 27%
- antioxidant power relative to ascorbic acid ([5]; FRAP value of tC1 versus ascorbic acid (positive control)): 152 fold
- FRAP value ([5]; OxiSelect FRAP Assay Kit): 55.1 Fe^2+ μM/μM
- ferrochelatase as interacting protein (HaCaT cell lysate): significant interacting partner
